Assay [1] addresses T1, Mitogen-activated protein kinase 14 (Homo sapiens, UniProt Q16539). Put plainly: Inhibition of p38alpha assessed as inhibition of gamma-32p-ATP incorporation into biotin peptide substrate after 60 mins by scintillation counter.
Assay [2] deals with T1, Mitogen-activated protein kinase 14. Put plainly: Inhibition of p38alpha assessed as inhibition of gamma-32p-ATP incorporation into biotin peptide substrate at 1 uM after 60 mins by scintillation counter.

T1 sequence (Q16539 whole entry): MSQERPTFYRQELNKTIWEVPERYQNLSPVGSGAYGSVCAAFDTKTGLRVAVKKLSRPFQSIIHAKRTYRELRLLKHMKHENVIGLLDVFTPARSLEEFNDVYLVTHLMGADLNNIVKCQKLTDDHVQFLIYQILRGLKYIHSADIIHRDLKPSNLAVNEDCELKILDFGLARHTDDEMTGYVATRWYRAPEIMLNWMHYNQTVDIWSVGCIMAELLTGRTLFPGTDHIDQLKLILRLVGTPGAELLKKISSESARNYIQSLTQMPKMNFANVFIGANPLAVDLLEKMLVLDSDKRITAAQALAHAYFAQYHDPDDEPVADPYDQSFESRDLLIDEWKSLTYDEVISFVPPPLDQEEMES

Take `Nc1cc(N(Cc2ccc(F)cc2)C(=O)c2ccc3ccccc3c2)ccn1`: in assay [1], the IC50 (as a rule, the concentration needed to halve the response being measured) is 5080 nM.

`O=C(c1ccc2ccccc2c1)N(Cc1ccc(F)cc1)c1ccnc(NC2CCCCC2)c1`: the concentration for half-maximal inhibition (IC50) in assay [1] came to 1110 nM. As to `C[C@@H](Nc1cc(N(Cc2ccc(F)cc2)C(=O)c2ccc3ccccc3c2)ccn1)c1ccccc1`, the 50% inhibitory concentration (IC50) in assay [1] turned out to be 7800 nM.

In the case of `C[C@H](Nc1cc(NCc2ccc(F)cc2)ccn1)c1ccccc1`, the inhibition (as a rule, the change of the read-out against control, counted positive when it falls) in assay [2] worked out at 0%. Consider `C[C@H](Nc1cc(N(Cc2ccc(F)cc2)C(=O)c2ccccc2)ccn1)c1ccccc1`, for which, in assay [1], the IC50 amounted to 589 nM. Same read-out and setting: for `CC(C)Nc1cc(N(Cc2ccc(F)cc2)C(=O)c2ccc3ccccc3c2)ccn1` the value was 671 nM; for `C[C@H](Nc1cc(N(Cc2ccc(F)cc2)S(=O)(=O)c2ccc3ccccc3c2)ccn1)c1ccccc1`, 7540 nM; for `C[C@H](Nc1cc(N(Cc2ccc(F)cc2)C(=O)c2ccc3ccccc3c2)ccn1)c1ccccc1`, 345 nM. Still for that read-out and setting: for `CCN(C(=O)c1ccc2ccccc2c1)c1ccnc(N[C@@H](C)c2ccccc2)c1` the value was 313 nM; for `C[C@H](Nc1cc(N(Cc2ccc(F)cc2)C(=O)N2CCC3C=CC=CC3C2)ccn1)c1ccccc1` (stereo not given in full), 1110 nM.

As for `O=C(c1ccc2ccccc2c1)N(Cc1ccc(F)cc1)c1ccncc1`, the IC50 in assay [1] was 1260 nM. In the case of `O=C(c1ccc2ccccc2c1)N(Cc1ccncc1)c1ccc(F)cc1`, the inhibition in assay [2] was found to be 0%. Take `CC(=O)N(Cc1ccc(F)cc1)c1ccnc(N[C@@H](C)c2ccccc2)c1`: the half-maximal inhibitory concentration (IC50) in assay [1] came to 408 nM. With `C[C@H](Nc1cc(CN(C(=O)c2ccc3ccccc3c2)c2ccc(F)cc2)ccn1)c1ccccc1`, in assay [2], the inhibition came to 0%. As for `O=C(c1ccc2ccccc2c1)N(Cc1ccc(F)cc1)c1ccnc(NCc2ccccc2)c1`, the IC50 in assay [1] was 1220 nM.

Values taken from ChEMBL document CHEMBL1156211, “Amide-based inhibitors of p38alpha MAP kinase. Part 1: discovery of novel N-pyridyl amide lead molecules” (Bioorg Med Chem Lett, 2010).
